Source: patent publication US9763969B2, “Treatment of inflammatory conditions with hyaluronan disaccharide” (CEDARS-SINAI MEDICAL CENTER, priority 2013, dated 2017)

How the values were obtained:
macrophage = macrophage stimulation assay, Pam3csk4 induced TNF-α secretion; format: cell-based; details: FIG. 3C; for Pam3csk4 induced TNF-α secretion: TLR2 agonist Pam3csk4
Text: (§1) FIG. 3 depicts, in accordance with an embodiment of the invention, in vitro anti-inflammatory properties of GBS hyaluronidase. A. Bio-Gel P-4 chromatography of hyaluronidase digestion mixture following digestion with GBS, bovine testis, or Streptomyces hyaluronlyticus hyaluronidase. B. Digestion of HA by GBS hyaluronidase leads to suppressed inflammation. C. HA disaccharide inhibits Pam3csk4 induced TNFα secretion.
(§2) Since bovine hyaluronidase degrades HA to 4-16mers, the inventors asked whether subsequent degradation with GBS hyaluronidase would abrogate induction of TNF-α. Indeed that is what the inventors found (FIG. 3B right). Because the major product of GBS hyaluronidase enzymatic activity is diHA (disaccharide), the inventors also evaluated the direct effect of DiHA on TNF-α secretion induced by a TLR2 agonist Pam3csk4.

acute lung injury = experiment: LPS acute lung injury, intratracheal; format: in vivo; details: mice, 5 micrograms LPS intratracheally, 100 micrograms disaccharide, 24 h; FIG. 14
Protocol: FIG. 14 depicts, in accordance with an embodiment of the invention, HA disaccharide decreases acute lung injury. Mice were injected intratracheally with 5 micrograms of LPS, along with PBS, Hyaluronan disaccharide (100 micrograms) or GBS enzyme (1 mg). At 24 h, the mice were sacrificed and the lungs were analyzed for histology (F&G) and cytokines and chemokines (A-E).

TLR2 = TLR2 reporter construct in HEK cells; format: cell-based; details: TLR2 agonist Pam3, FIG. 12A
Protocol: (§3) FIG. 12 depicts, in accordance with an embodiment of the invention, HA disaccharide reduces TLR 2 and 4 (A), but not TLR9 (B) signaling. HEK cells were transfected with TLR2, 4, and 9 reporter constructs. The cells were incubated with TLR2 agonist (Pam3), TL4 agonist (LPS), or TLR9 agonist (Cpg) with or without hyaluronan disaccharide. Activation of the reporter genes at 4 h was measured.

[1] = test system: bone marrow derived macrophages; experiment: macrophage stimulation assay, LPS or undigested hyaluronan with hyaluronan disaccharide; format: cell-based, mice
Protocol: FIG. 6 depicts, in accordance with an embodiment of the invention, hyaluronan disaccharide has an anti-inflammatory property. Hyaluronan disaccharide was co-incubated with LPS or undigested hyaluronan in a macrophage stimulation assay. Hyaluronan disaccharide reduces TNF-α induction by LPS or undigested hyaluronan.
FIG. 11 depicts, in accordance with an embodiment of the invention, hyaluronan dimers are not inert. Bone marrow derived macrophages from WT mice were incubated with LPS and various concentrations of hyaluronan disaccharide. TNF-α at 18 h was measured.

TLR4 = TLR4 reporter construct in HEK cells; format: cell-based; details: TLR4 agonist LPS, FIG. 12A
Protocol: as §3

TLR9 = TLR9 reporter construct in HEK cells; format: cell-based; details: TLR9 agonist Cpg, FIG. 12B
Protocol: as §3

[2] = hyaluronidase digestion of HA, fragment sizes (Bio-Gel P-4 chromatography / HPLC); format: biochemical; details: FIG. 3A
Text: as §1
(§4) FIG. 8 depicts, in accordance with an embodiment of the invention, GBS hyaluronidase reduces hyaluronan to dimers and dampens inflammation. HPLC profile of hyaluronan fragments generated by bovine hyaluronidase versus Group B streptococcus (GBS) hyaluronidase (A). Stimulatory hyaluronan fragments (4-16mers) were digested with GBS hyaluronidase for 4 or 15 hours (B).
as §2

[3] = test system: bone marrow derived macrophages; experiment: hyaluronan predigested with GBS hyaluronidase, then stimulation of macrophages; format: cell-based
Text: FIG. 7 depicts, in accordance with an embodiment of the invention, Group B streptococcal hyaluronidase has an anti-inflammatory property. Hyaluronan was predigested with purified GBS hyaluronidase or PBS, and then transferred to a culture of bone marrow derived macrophages.
as §4, §2

Row | Molecule | immunostimulatory capacity (macrophage) | Pam3csk4 induced TNF-α secretion (macrophage; listed as HA disaccharide) | Pam3csk4 induced TNF-α secretion (macrophage; listed as diHA) | acute lung injury (acute lung injury) | TLR2 signaling (reporter gene activation at 4 h) (TLR2) | TNF-α at 18 h with LPS and various concentrations of hyaluronan disaccharide ([1]; bone marrow derived macrophages from WT mice, FIG. 11) | TNF-α induction by LPS ([1]; co-incubated with LPS, FIG. 6) | TNF-α induction by undigested hyaluronan ([1]; co-incubated with undigested hyaluronan, FIG. 6) | TLR4 signaling (reporter gene activation at 4 h) (TLR4) | TLR9 signaling (reporter gene activation at 4 h) (TLR9) | HA degradation product (fragment size) [2] | TNF-α stimulation by hyaluronan ([3]; hyaluronan predigested with purified GBS hyaluronidase or PBS, FIG. 7) | cytokine production ([3]; stimulatory hyaluronan fragments (4-16mers) digested for 4 or 15 hours, FIG. 8B) | induction of TNF-α by HA degraded with bovine hyaluronidase ([3]; subsequent degradation with GBS hyaluronidase, FIG. 3B right)
1 | hyaluronan disaccharide | no immunostimulatory capacity | inhibits | partially inhibited | decreases | reduces | not inert | reduces | reduces | reduces | not | – | – | – | –
2 | GBS hyaluronidase: purified hyaluronidase from Group B Streptococcus (S. agalactiae) that degrades HA to a disaccharide (protein, UniProt Q53591 41-984, looked up) Hyaluronate lyase: WIDKENTADKSPIIQRTEQGQVSLSSDKGFRGAVTQKVNIDPTKKYEVKFDIETSNKAGQAFLRIMEKKDNNTRLWLSEMTSGTTNKHTLTKIYNPKLNVSEVTLELYYEKGTGSATFDNISMKAKGPKDSEHPQPVTTQIEESVNTALNKNYVFNKADYQYTLTNPSLGKIVGGILYPNATGSTTVKISDKSGKIIKEVPLSVTASTEDKFTKLLDKWNDVTIGNHVYDTNDSNMQKINQKLDETNAKNIKTIKLDSNHTFLWKDLDNLNNSAQLTATYRRLEDLAKQITNPHSTIYKNEKAIRTVKESLAWLHQNFYNVNKDIEGSANWWDFEIGVPRSITATLALMNNYFTDAEIKTYTDPIEHFVPDAGYFRKTLDNPFKALGGNLVDMGRVKIIEGLLRKDNTIIEKTSHSLKNLFTTATKAEGFYADGSYIDHTNVAYTGAYGNVLIDGLTQLLPIIQETDYKISNQELDMVYKWINQSFLPLIVKGELMDMSRGRSISREAASSHAAAVEVLRGFLRLANMSNEERNLDLKSTIKTIITSNKFYNVFNNLKSYSDIANMNKMLNDSTVATKPLKSNLSTFNSMDRLAYYNAEKDFGFALSLHSKRTLNYEGMNDENTRDWYTGDGMFYLYNSDQSHYSNHFWPTVNPYKMAGTTEKDAKREDTTKEFMSKHSKDAKEKTGQVTGTSDFVGSVKLNDHFALAAMDFTNWDRTLTAQKGWVILNDKIVFLGSNIKNTNGIGNVSTTIDQRKDDSKTPYTTYVNGKTIDLKQASSQQFTDTKSVFLESKEPGRNIGYIFFKNSTIDIERKEQTGTWNSINRTSKNTSIVSNPFITISQKHDNKGDSYGYMMVPNIDRTSFDKLANSKEVELLENSSKQQVIYDKNSQTWAVIKHDNQESLINNQFKMNKAGLYLVQKVGNDYQNVYYQPQTMTKTDQLAI | – | – | – | – | – | – | – | – | – | – | a single product—a disaccharide | significantly reduces | reduces cytokine production | abrogate
